US12180192B2, “Modulators of THR-β and methods of use thereof” (ALIGOS THERAPEUTICS, INC., priority 2019, dated 2024)

How the values were obtained:
[1] = target: T1, human thyroid receptor alpha ligand-binding domain (LBD) (Homo sapiens, UniProt P10827); assay: TR-FRET thyroid receptor alpha coactivator assay (THR biochemical assay, Assay 1); settings: for EC50: Table 4, THR-alpha, read-out: Activity category Assay 1 (EC50, THR-alpha agonist activity); for Emax: Table 5, THRα, read-out: Activity category Assay 1 THRα (Emax)
T1 construct: purchased Invitrogen
T1 sequence (P10827 163-410 isoform P10827-2 limits assumed, other chains not shown): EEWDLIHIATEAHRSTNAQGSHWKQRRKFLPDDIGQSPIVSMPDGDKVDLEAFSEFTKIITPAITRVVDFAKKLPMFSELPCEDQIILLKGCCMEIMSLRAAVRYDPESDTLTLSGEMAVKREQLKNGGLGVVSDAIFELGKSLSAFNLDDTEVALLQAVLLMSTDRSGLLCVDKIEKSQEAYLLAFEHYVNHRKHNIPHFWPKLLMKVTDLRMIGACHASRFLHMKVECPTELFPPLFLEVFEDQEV
Summary of the method: (§1)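 GST-tagged human TRβ or TRα LBD, 1 nM final (stated for β), with fluorescein-SRC2-2 coactivator peptide (200 nM) and Tb-anti-GST antibody (2 nM). Agonists serially diluted, 1% DMSO final. 1 h incubation at rt in the dark; TR-FRET read as rise in fluorescein and drop in terbium emission.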

[2] = target: T2, human thyroid receptor beta ligand-binding domain (LBD) (Homo sapiens, UniProt P10828); assay: TR-FRET thyroid receptor beta coactivator assay (THR biochemical assay, Assay 1); settings: for EC50: THR-beta, TR-FRET coactivator assay, read-out: Activity category Assay 1 (EC50, THR-beta agonist); for Emax: Table 5, Assay 1, THRβ, read-out: Activity category Assay 1 THRβ (Emax)
T2 construct: purchased Invitrogen
T2 sequence (P10828 217-461 limits assumed): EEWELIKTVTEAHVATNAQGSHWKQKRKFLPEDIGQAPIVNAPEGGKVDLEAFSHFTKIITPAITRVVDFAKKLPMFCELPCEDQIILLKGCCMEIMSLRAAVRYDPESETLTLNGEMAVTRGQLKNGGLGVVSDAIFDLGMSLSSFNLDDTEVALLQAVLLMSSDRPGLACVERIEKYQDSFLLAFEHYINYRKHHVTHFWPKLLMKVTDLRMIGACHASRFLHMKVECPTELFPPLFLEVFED
Summary of the method: as §1

Structure (SMILES) | EC50 [1] [nM] | Emax [1] [%] | EC50 [2] [nM] | Emax [2] [%]
Nc1nn(-c2cc(Cl)c(Oc3cc(C4CC5(CC5)C4)c(=O)[nH]n3)c(Cl)c2)c(=O)[nH]c1=O [Compound 93] | 250 to 1000 | < 50 | 50 to 250 | < 50
Nc1nn(-c2cc(Cl)c(Oc3cc(C4CC5(CCC5)C4)c(=O)[nH]n3)c(Cl)c2)c(=O)[nH]c1=O [Compound 94] | 250 to 1000 | < 50 | 50 to 250 | < 50
Nc1nn(-c2cc(Cl)c(Oc3cc(C45CCC(C4)C5)c(=O)[nH]n3)c(Cl)c2)c(=O)[nH]c1=O [Compound 101] | 250 to 1000 | < 50 | 50 to 250 | < 50
Cc1ccc(-c2cc(Oc3c(Cl)cc(-n4nc(N)c(=O)[nH]c4=O)cc3Cl)n[nH]c2=O)cc1C [Compound 112] | 250 to 1000 | < 50 | 50 to 250 | < 50
Nc1nn(-c2cc(Cl)c(Oc3cc(-c4ccc5c(c4)CCCO5)c(=O)[nH]n3)c(Cl)c2)c(=O)[nH]c1=O [Compound 114] | > 25000 | < 50 | 50 to 250 | < 50
Nc1nn(-c2cc(Cl)c(Oc3n[nH]c(=O)cc3-c3ccc4c(c3)CCCO4)c(Cl)c2)c(=O)[nH]c1=O [Compound 115] | > 25000 | < 50 | 50 to 250 | < 50
CC(C)Nc1n[nH]c2ccc(Oc3c(Cl)cc(-n4nc(C#N)c(=O)[nH]c4=O)cc3Cl)cc12 [Compound 145, 2-(3,5-dichloro-4-((3-(isopropylamino)-1H-indazol-5-yl)oxy)phenyl)-3,5-dioxo-2,3,4,5-tetrahydro-1,2,4-triazine-6-carbonitrile] | < 50 | 50 to 75 | < 50 | < 50
CC(C)c1cc(=O)[nH]c2ccc(Oc3c(Cl)cc(-n4nc(N)c(=O)[nH]c4=O)cc3Cl)cc12 [Compound 146, 6-amino-2-[3,5-dichloro-4-[(4-isopropyl-2-oxo-1H-quinolin-6-yl)oxy]phenyl]-1,2,4-triazine-3,5-dione] | 50 to 250 | < 50 | < 50 | < 50
Cc1cc(-n2nc(C#N)c(=O)[nH]c2=O)cc(C)c1Cc1ccc2c(c1)C1(CC1)C(=O)N2 [Compound 148, 2-(3,5-dimethyl-4-((2′-oxospiro[cyclopropane-1,3′-indolin]-5′-yl)methyl)phenyl)-3,5-dioxo-2,3,4,5-tetrahydro-1,2,4-triazine-6-carbonitrile] | < 50 | 50 to 75 | < 50 | < 50
Cc1cc(-n2nc(N)c(=O)[nH]c2=O)cc(C)c1Cc1ccc2c(c1)C1(CC1)C(=O)N2 [Compound 151, 6-Amino-2-(3,5-dimethyl-4-((2′-oxospiro[cyclopropane-1,3′-indolin]-5′-yl)methyl)phenyl)-1,2,4-triazine-3,5(2H,4H)-dione] | < 50 | > 75 | < 50 | 50 to 75
Cc1cc(-n2nc(N)c(=O)[nH]c2=O)cc(C)c1Cc1cc2c(C(C)C)c[nH]c2cn1 [Compound 157, 6-amino-2-[4-[(3-isopropyl-1H-pyrrolo[2,3-c]pyridin-5-yl)methyl]-3,5-dimethyl-phenyl]-1,2,4-triazine-3,5-dione] | 250 to 1000 | 50 to 75 | < 50 | > 75
Nc1nn(-c2cc(Cl)c(Oc3cc(C4Cc5ccccc54)c(=O)[nH]n3)c(Cl)c2)c(=O)[nH]c1=O (stereo not drawn) [Compound 158] | 250 to 1000 | < 50 | < 50 | < 50
